Results as given in patent publication US20200352912A1, “ANTIMICROBIAL COMPOSITIONS AND METHODS OF USING THE SAME” (The Board Of Supervisors Of Louisiana State University And …, priority 2018, published 2020).

Key:
[1] = tested on: C. albicans and S. aureus; assay: mouse C. albicans-S. aureus polymicrobial intra-abdominal infection; type: in vivo, mice; settings: 10 mg/kg
Experimental: Effect of inhibition of EP4 receptor signaling on survival. Mice received either vehicle or EP4 receptor antagonist at a dose of 10 mg/kg by i.p. injection as indicated in Materials and Methods. Mortality was assessed using Kaplan Meier test (***P<0.001; n=20/group) compared to control groups. Data shown are representative of three replicate experiments.
The mouse peritonitis/intra-abdominal model was performed as previously described (8). In brief, for MRSA peritonitis, mice were injected intraperitoneally (i.p.) with 4×10^6 CFU or 5×10^6 CFU or 2×10^7 CFU of S. aureus in 0.2 ml of PBS containing 3% hog gastric mucin type III (Sigma Aldrich). Mice injected i.p. with 0.2 ml of mucin/PBS served as a negative infection control. For the intra-abdominal infection with C. albicans and S. aureus, mice were injected i.p. with 7×10^6 CFU of C. albicans and 8×10^7 CFU of S. aureus (8.7×10^7 CFU total) in 0.2 ml of PBS. After inoculation, mice were observed over 10 days for signs of morbidity (hunched posture, inactivity, lethargy, and ruffled fur) and mortality. […] In the MRSA peritonitis experiments, mice were sacrificed at 24 or 48 h post-inoculation to assess microbial burden. Peritoneal cavities were lavaged by injection of 2 ml of sterile PBS followed by gentle massaging of the peritoneal cavity. Peritoneal lavage fluid then was removed using a pipette inserted into a small incision in the abdominal cavity. Spleens were removed, weighed, and mechanically homogenized prior to CFU analysis. Microbial burdens in the peritoneal lavage fluid and spleen were enumerated as described above.
Each inhibitor was prepared fresh as a concentrated stock (20-25 mg/ml) in DMSO and diluted to a working concentration of […] in sterile PBS (final DMSO concentration, 2.3%). A sham treatment containing only 2.3% DMSO in PBS was also prepared. For the MRSA peritonitis study, the EP4 receptor antagonist was administered 2 h after S. aureus inoculation and once daily thereafter until day 4 post inoculation. For the IAI co-infection study, COX inhibitor or vehicle control was administered 4 h prior to and 4 and 8 h after inoculation with C. albicans and S. aureus while the EP receptor antagonists were administered daily starting 1 day prior to and 5 days after infection. All other procedures were performed as described above. Control groups received the vehicle at the same dose interval.
In a final set of experiments, we evaluated the ability of L-161, 982 to reduce lethality in co-infected mice. Mice co-inoculated with the standard 7×106 C. albicans CFU and 8×107 S. aureus CFU (8.7×10^7 CFU total) were treated with L-161, 982 (10 mg/kg) 2 h post infection and once daily afterwards until day 5. […]

[2] = tested on: pre-formed dual-species biofilm; assay: pre-formed mature biofilm (XTT, CFU); type: cell-based, C. albicans and S. aureus; settings: 100 and 200 μg/ml
Experimental: The effect of L-161, 982 on pre-formed mature biofilms was tested. Mono- and dual-species C. albicans and/or S. aureus biofilms were grown on 96-well plates for 24 h before being treated with the indicated concentration of L-161, 982 for a further 24 h. After treatment, metabolic activity of biofilms was quantified by the XTT assay (A) and then biofilms were disrupted to determine live colony forming units (CFU) (B). The results are cumulative of three independent experiments with duplicate samples. Statistics were performed using One-way ANOVA with the Tukey post-hoc test for the XTT assay. The Mann-Whitney U test was used to analyze CFU data. Significance is indicated as follows: ns—not significant, *P<0.05; *** P<0.001. Error bars represent standard deviation.
Following growth as described above, microbes were washed in phosphate-buffered saline (PBS) by centrifugation, counted on a hemocytometer, and adjusted to 2×10^7 CFU/ml in RPMI buffered with MOPS (165 mM). […]
The XTT reduction assay was used to determine the metabolic activity of biofilms following treatment with L-161, 982 (17). Briefly, wells were washed once in PBS, and plates incubated at 37° C. for 2 h with 200 μl XTT working reagent (0.5 mg/ml XTT and 1 μM Menadione) and the resulting absorbance measured at 490 nm on a microplate spectrophotometer. […]

CCCCc1nn(-c2ccccc2C(F)(F)F)c(=O)n1Cc1ccc(-c2ccccc2S(=O)(=O)NC(=O)c2sccc2C)cc1 [L-161, 982, N-[[4′-[[3-Butyl-1,5-dihydro-5-oxo-1-[2-(trifluoromethyl)phenyl]-4H-1,2,4-triazol-4-yl]methyl][1,1′-biphenyl]-2-yl]sulfonyl]-3-methyl-2-thiophenecarboxamide]
survival enhanced by [1]: 40%
survival ([1]; vehicle control 10): 50%
S. aureus CFUs recovered from pre-formed dual-species biofilm [2]: no CFUs were recovered
